# Laboratory results taken from patent US20040132819A1, “Appetite control method” (priority 2002, published 2004).
# Where two headings read alike, the source gives them in different places.
# Legend:
# [1] = tested on: diet-restricted BALB/c mice; settings: cited from earlier work
# [2] = pre-satiated rats, subcutaneous, all doses; cited from earlier work
# [3] = tested on: rat brain N-acylethanolamines; assay: N-acylethanolamine (NAE) levels in rat brain; assay type: in vivo, Sprague-Dawley rat
# Protocol: (§1) Total lipid was extracted from rat brains using the Folch extraction method, typical for lipid extraction (Folch et al, 1957). The total lipid extract from each rat brain was separated into neutral lipid and phospholipid fractions using a silica cartridge. The neutral lipid fraction was further separated into MAG and NAE fractions using High Performance Liquid Chromatography (HPLC). Fatty acid composition of the MAG, NAE, and phospholipid fractions was determined using Gas-Liquid Chromatography (GLC) after derivatizing to the corresponding fatty acid methyl esters. The fatty acid composition results correspond to total fatty acids in the membrane phospholipids in brain, and the MAG and NAE fatty acid results represent the concentration of these fatty acyl derivatives in rat brains.
# (§2) Rat brain samples, stored frozen at −70° C., were separated into the two hemispheres; one half was used for determination of fatty acids in phospholipid, MAG, and NAE fractions and the other half was refrozen at −70° C. The half brain for analysis was transferred to a 50-mL glass centrifuge tube. Eight mL of methanol was added and the sample homogenized using a Polytron Dispersing and Mixing System (Kinematica, Switzerland) until well blended. The homogenizer probe was rinsed with 2 mL methanol added directly into the centrifuge tube. Twenty mL of chloroform was then added to the sample and mixed vigorously by shaking. The sample was left undisturbed at room temperature for at least 1 hour. Known amounts of internal standards, 9.91 μg of monoheptadecanoin and 3.32 μg of docosatrienoyl ethanolamine, were added. Six mL of 0.9% saline was then added and the sample mixed vigorously by shaking. The sample was then centrifuged for 7 minutes at 2000 rpm at 15° C. until the organic and aqueous layers were well separated using a Beckman Allegra™ 6R Centrifuge; Fullerton, Calif.). The chloroform (bottom) layer was aspirated into a clean 30-mL test tube. The sample was then evaporated to dryness under N2 and was either stored at −20° C. or reconstituted in 500 μL of chloroform. […]
# [4] = tested on: rat brain phospholipid membrane; assay: Fatty acid levels in rat brain phospholipid membrane; assay type: in vivo, Sprague-Dawley rat; settings: ANOVA main effect
# Protocol: as §1, §2
# [5] = Postprandial leptin and circulating insulin levels; assay type: in vivo, Sprague-Dawley rat
# Protocol: The rat pups were sacrificed by decapitation on day 20 after the food intake phase and final body weights were taken. The brain was removed, weighed, and quickly frozen (within 5 minutes) in liquid nitrogen. Brain tissue was stored in a −70° C. freezer. Blood was collected from the neck stump, mixed with heparin, placed on ice, and centrifuged to ensure adequate phase separation to prepare plasma. Plasma was stored at −70° C.
# Postprandial leptin levels in the rats fed the ARA-containing formulas during the formula feeding phase were about 20-30% lower than for rats fed the formulas without ARA. Postprandial leptin levels in the rats fed the DHA-containing formulas were about 5-15% higher than for rats fed the formulas without DHA. No differences in circulating insulin levels were found among the groups.
# [6] = tested on: rat brain monoacylglycerols; assay: Monoacylglycerol (MAG) levels in rat brain; assay type: in vivo, Sprague-Dawley rat; settings: ANOVA main effect
# Protocol: as §1
# Rat brain samples, stored frozen at −70° C., were separated into the two hemispheres; one half was used for determination of fatty acids in phospholipid, MAG, and NAE fractions and the other half was refrozen at −70° C. The half brain for analysis was transferred to a 50-mL glass centrifuge tube. Eight mL of methanol was added and the sample homogenized using a Polytron Dispersing and Mixing System (Kinematica, Switzerland) until well blended. The homogenizer probe was rinsed with 2 mL methanol added directly into the centrifuge tube. […]
# [7] = tested on: brain NAEs and MAGs; settings: piglets fed 0.2% AA (percent total fatty acids); cited from earlier work
# [8] = Deaths during artificial rearing; assay type: in vivo, Sprague-Dawley rat; settings: combined rearings; vs 10 rats without DHA, p=0.054
# Description: Male rat pups were removed from dams on postnatal day 6 and artificially reared on rat milk formulas to day 18. This procedure has been described in detail in the literature by Sonnenberg et al, 1982; Smart et al, 1983 and 1984; and Auestad et al, 1989. Similar procedures have been also been described by Ward et al, 1998, and Wainwright et al, 1999. On postnatal day 6, rat pups were randomly assigned to one of the four experimental rat milk formula groups (Table 3.2). The rat pups were lightly anesthetized, fitted with an intragastric cannula, and placed individually in pint-sized plastic containers free floating in a waterbath maintained at 36±2° C. The cannulae for individual rat pups were each connected to syringes filled with one of the four experimental rat milk formulas using polyethylene tubing. The rat pups were fed by intermittent, intragastric infusion, from day 6 to day 18. The formula was delivered to the rat pups for 20 or 30 min each hour, depending on the age of the rat, using a programmable pump housed in a bench-top refrigerator. The pump settings were modified daily to deliver specific quantities of rat milk formula to the rat pups to support normal growth.
# Two groups of rats were artificially reared one in February 2002 and one in April 2002. The plan was to cannulate a total of 64 rats, thirty-two per rearing and 8 rats per experimental formula group. […]
# [9] = tested on: hypothalamic 20:4n-6 NAE and 20:4n-6 MAG; settings: 125 or 250 μg intravenously, within 30 minutes, normal Sprague-Dawley rats; cited from earlier work
molecule,measurement,setting,value
"CCCCC/C=C\C/C=C\C/C=C\C/C=C\CCCC(=O)NCCO [20:4n-6 NAE, 5,8,11,14-eicosatetraenamide, (N-2-hydroxyethyl)-(all-Z)]",food consumption vs control group,"[1]; 0.001 mg/kg intraperitoneally, 40% calorie restriction",consumed significantly more food
same,food consumption vs control group,[1]; 0.7 or 4 mg/kg intraperitoneally,did not show any significant change
same,effect on eating,[2],induced significant overeating
"CCCCC/C=C\C/C=C\C/C=C\C/C=C\CCCC(=O)O [AA, arachidonic acid]",main effect on 20:4n-6 NAE in brain,[3]; ANOVA main effect,increasing
same,main effect on total n-6 NAE in brain,[3]; ANOVA main effect,increasing
same,increase in 20:4n-6 NAE in brain,"[3]; rats fed formulas with AA, p=0.008",40%
same,main effect on AA and C22:4n-6 levels in brain phospholipids,[4],increasing
same,main effect on brain phospholipid DHA,[4],decreasing
same,main effect on linoleic acid (C18:2n-6) and C20:3n-6 levels in brain phospholipids,[4],decreasing
same,postprandial leptin levels lower than in rats fed formulas without ARA,[5]; ARA-containing formulas during formula feeding phase,20-30%
same,main effects on n-6 or n-3 MAG in brain,[6],no significant main effects
same,20:4n-6 NAE increase in brain,[7],4 fold
"CC/C=C\C/C=C\C/C=C\C/C=C\C/C=C\C/C=C\CCC(=O)O [DHA, docosahexaenoic acid]",postprandial leptin levels higher than in rats fed formulas without DHA,[5]; DHA-containing formulas,5-15%
same,rats that died when DHA was in the formula,[8],3 rats
leptin: peptide hormone secreted from adipose cells,decrease of hypothalamic levels of 20:4n-6 NAE and 20:4n-6 MAG vs untreated controls,[9],40-50%
